Assay results taken from patent publication US9771378B2 (Denali Therapeutics, Inc., priority 2014, dated 2017).

Test system: Aβ42 (human neuroglioma H4 cells expressing human wild type APP751)
Experiment: In vitro cell screening assay with sandwich ELISA quantification of Aβ42 peptide
Format: cell-based
Conditions: H4 cells stably expressing human wild type APP751; Pro293 chemically defined medium; compounds 0.003-10 μM; incubated overnight (16-18 h); supernatant Aβ42 by sandwich ELISA; normalized to DMSO and DAPT; read-out: Aβ42 H4 Prot Fre IC50
Procedure: Human neuroglioma H4 cells were transfected with a pcDNA3.1 plasmid expressing human wild type APP751 cDNA and a stable cell line was generated using G418 selection. Cells are plated at 15,000 cells/well in Costar 96-well plates and placed at 37° C. and 5% CO2. Six hours after plating, cells are washed three times with Pro293™ chemically defined medium, followed by addition of compounds (0.003-10 μM, final DMSO concentration of 0.33%). Plates were incubated overnight (16-18 h) and supernatant was removed for quantification of AP peptides by sandwich ELISA. Cytotoxicity was evaluated using Cell-Titer 96W AQueous One Solution Cell Proliferation Assay according to the manufacturer's protocol.
ELISA Measurements of Aβ Peptides
Aβ peptide levels were quantified by sandwich ELISA. 96-well plates are coated with C-terminal specific Aβ antibodies recognizing either Aβ37, Aβ38, Aβ40, Aβ42, Aβ43 or a N-terminal specific Aβ antibody to detect Aβ 1-x. Plates are then blocked overnight at 4° C. with 1% bovine serum albumin (BSA) in PBS-T. Plates are washed and 100 μl of cultured cell supernatant or synthetic Aβ peptide standards and a detection antibody (4G8-HRP) are applied to the blocked plate and incubated overnight at 4° C. The next day, wells are washed before the addition […] of detection substrate (TMB peroxidase). Plates are then read for absorbance at 450 nm on a Molecular Devices SpectraMax M5e Microplate Reader.
IC50 values were calculated from values reported as percent of DMSO controls using nonlinear regression, based on a sigmoidal dose-response (variable slope) model. GraphPAD software from Prism used for calculation.

Row | SMILES | IC50
1 | COc1cc(Nc2ncc3c(n2)N(C)C(c2ccc(F)cc2F)CO3)cnc1-n1cnc(C)c1 (single isomer, unassigned; (-)) [Example 186B] | 328 nM
2 | COc1cc(Nc2ncc3c(n2)N(C)C(c2ccccc2OC(F)(F)F)CO3)ccc1-c1ccnc(C)c1 (single isomer, unassigned; (+)) [Example 62B] | 165 nM
3 | Cc1cn(-c2ccc(Nc3ncc4c(n3)N(C)C(c3ccccc3C(F)(F)F)CO4)cc2F)cn1 (single isomer, unassigned; (-)) [Example 84B] | 421 nM
4 | COc1cc(Nc2ncc3c(n2)N(C)C(c2ccccc2C)CO3)ccc1-n1cnc(C)c1 (racemic) [Example 31] | 25 nM
5 | COc1ccc(C2COc3cnc(Nc4cnc(-n5cnc(C)c5)c(OC)c4)nc3N2C)c(Cl)c1 (single isomer, unassigned; (-)) [Example 209B] | 55 nM
6 | COc1cc(Nc2ncc3c(n2)N(C)C(c2ccccc2Cl)CO3)ccc1-c1ccnc(C)c1 (single isomer, unassigned; (-)) [Example 85A] | 292 nM
7 | COc1cc(Nc2ncc3c(n2)N(C)C2(CO3)CC(F)(F)C2)ccc1-n1cnc(C)c1 [Example 276] | 56 nM
8 | COc1nc(Nc2ncc3c(n2)N(C)C(c2cc(F)cc(F)c2)CO3)ccc1-c1ccnc(C)n1 (single isomer, unassigned; (+)) [Example 183A] | > 3000 nM
9 | COc1cc(Nc2ncc3c(n2)N(C)C(Cc2ccccc2)CO3)ccc1-n1cnc(C)c1 (single isomer, unassigned; (-)) [Example 47B] | 65 nM
10 | COc1cc(Nc2ncc3c(n2)N(C)C(C)CO3)ncc1-n1cnc(C)c1 (racemic) [Example 234] | 1770 nM
11 | COc1cc(Nc2ncc3c(n2)N(C)C(c2cc(F)c(F)c(F)c2)CO3)ccc1-n1cnc(C)c1 (racemic) [Example 40] | 20 nM
12 | COc1cc(Nc2ncc3c(n2)N(C)C2(COC2)CO3)ccc1-n1cnc(C)c1 [Example 271] | 364 nM
13 | Cc1cn(-c2ccc(Nc3ncc4c(n3)N(C)C(c3ccccc3OC(F)(F)F)CO4)cc2F)cn1 (single isomer, unassigned; (+)) [Example 64A] | 402 nM
14 | COc1cc(Nc2ncc3c(n2)N(C)C(C2CCC(F)(F)CC2)CO3)cnc1-n1cnc(C)c1 (single isomer, unassigned; (+)) [Example 221A] | 24 nM
15 | COc1cc(Nc2ncc3c(n2)N(C)C(C(F)(F)F)CO3)cnc1-n1cnc(C)c1 (single isomer, unassigned; (+)) [Example 193A] | 908 nM
16 | Cc1cc(-c2ccc(Nc3ncc4c(n3)N(C)C(c3ccccc3)CO4)cc2F)ccn1 (single isomer, unassigned; (-)) [Example 27B] | 2100 nM
17 | COc1cc(Nc2ncc3c(n2)N(C)C(C)CO3)cnc1-n1cnc(C)c1 (single isomer, unassigned; (+)) [Example 185A] | 241 nM
18 | COc1cc(Nc2ncc3c(n2)N(C)[C@@H](C(C)(C)C)CO3)cnc1-n1cnc(C)c1 [Example 246] | 24 nM
19 | Cc1cn(-c2ccc(Nc3ncc4c(n3)N(C)C(c3ccccc3C)CO4)cc2F)cn1 (single isomer, unassigned; (+)) [Example 34A] | 20 nM
20 | COc1cc(Nc2ncc3c(n2)N(C)C(c2cc(C(F)(F)F)ccc2Cl)CO3)ccc1-n1cnc(C)c1 (racemic) [Example 88] | 39 nM
21 | COc1cc(Nc2ncc3c(n2)N(C)C(c2ccc(F)cc2)CO3)ccc1-n1cnc(C)c1 (single isomer, unassigned; (-)) [Example 49A] | 191 nM
22 | COc1cc(Nc2ncc3c(n2)N(C)C(CC(F)(F)F)CO3)cnc1-n1cnc(C)c1 (single isomer, unassigned; (+)) [Example 238B] | 66 nM
23 | Cc1cn(-c2ccc(Nc3ncc4c(n3)N(C)C(c3cc(F)cc(F)c3)CO4)cc2OC(F)(F)F)cn1 (single isomer, unassigned; (-)) [Example 223A] | > 3000 nM
24 | COc1cc(Nc2ncc3c(n2)N(C)C(c2cc(F)c(F)c(F)c2)CO3)ccc1-n1cnc(C)c1 (single isomer, unassigned; (+)) [Example 40B] | 11 nM
25 | COc1cc(Nc2ncc3c(n2)N(C)[C@@H](C2CCC2)CO3)ccc1-n1cnc(C)c1 [Example 227] | 19 nM
26 | Cc1cn(-c2ccc(Nc3ncc4c(n3)N(C)C(c3ccc(F)cc3C(F)(F)F)CO4)cc2F)cn1 (single isomer, unassigned; (-)) [Example 99B] | 1040 nM
27 | COc1cc(Nc2ncc3c(n2)N(C)C(C)(C)CO3)cnc1-n1cnc(C)c1 [Example 261] | 139 nM

Row | SMILES | IC50
28 | COc1cc(Nc2ncc3c(n2)N(C)C(c2ccccc2OC(F)(F)F)CO3)ccc1-n1cnc(C)c1 (single isomer, unassigned; (+)) [Example 60B] | 78 nM
29 | COc1cc(Nc2ncc3c(n2)N(C)C(c2cc(F)cc(F)c2)CO3)ccc1-c1ccnc(C)c1 (single isomer, unassigned; (-)) [Example 42B] | 801 nM
30 | Cc1cn(-c2ccc(Nc3ncc4c(n3)N(C)C(c3cc(F)cc(F)c3)CO4)cc2C(F)F)cn1 (single isomer, unassigned; (-)) [Example 222B] | > 3000 nM
31 | Cc1cn(-c2ccc(Nc3ncc4c(n3)N(C)C(c3cc(F)ccc3C(F)(F)F)CO4)cc2F)cn1 (single isomer, unassigned; (+)) [Example 104B] | 77 nM
32 | COc1cc(Nc2ncc3c(n2)N(C)C(c2cc(C(F)(F)F)ccc2Cl)CO3)ccc1-n1cnc(C)c1 (single isomer, unassigned; (+)) [Example 88A] | 37 nM
33 | COc1cc(Nc2ncc3c(n2)N(C)[C@@H](C(C)(C)C)CO3)ccc1-n1cnc(C)c1 [Example 240] | 21 nM
34 | COc1cc(Nc2ncc3c(n2)N(C)C(C2CC(F)(F)C2)CO3)ccc1-n1cnc(C)c1 (single isomer, unassigned; (-)) [Example 212A] | 348 nM
35 | Cc1cn(-c2ccc(Nc3ncc4c(n3)N(C)C(c3cc(Cl)ccc3C(F)(F)F)CO4)cc2F)cn1 (single isomer, unassigned; (-)) [Example 100B] | 588 nM
36 | COc1cc(Nc2ncc3c(n2)N(C)C(c2ccccc2C)CO3)cnc1-n1cnc(C)c1 (single isomer, unassigned; (+)) [Example 171A] | 11 nM
37 | COc1cc(Nc2ncc3c(n2)N(C)C(c2ccccc2Cl)CO3)ccc1-n1cnc(C)c1 (single isomer, unassigned; (-)) [Example 51A] | 28 nM
38 | COc1ccc(Cl)c(C2COc3cnc(Nc4ccc(-n5cnc(C)c5)c(OC)c4)nc3N2C)c1 (single isomer, unassigned; (-)) [Example 167B] | 75 nM
39 | COC[C@@H]1COc2cnc(Nc3ccc(-n4cnc(C)c4)c(OC)c3)nc2N1C [Example 176] | 369 nM
40 | COc1ccc(C)c(C2COc3cnc(Nc4ccc(-n5cnc(C)c5)c(OC)c4)nc3N2C)c1 (single isomer, unassigned; (-)) [Example 175B] | 95 nM
41 | COc1nc(Nc2ncc3c(n2)N(C)C(c2ccccc2C)CO3)ccc1-n1cnc(C)c1 (single isomer, unassigned; (-)) [Example 180A] | > 3000 nM
42 | Cc1cn(-c2ccc(Nc3ncc4c(n3)N(C)C(c3ccccc3)CO4)cc2F)cn1 (single isomer, unassigned; (+)) [Example 25A] | 14 nM
43 | COc1cc(Nc2ncc3c(n2)N(C)C(c2ccc(F)cc2F)CO3)ccc1-n1cnc(C)c1 (single isomer, unassigned; (+)) [Example 48B] | 20 nM
44 | COc1cc(Nc2ncc3c(n2)N(C)C(C2COC2)CO3)ccc1-n1cnc(C)c1 (single isomer, unassigned; (+)) [Example 241B] | 342 nM
45 | COC[C@H]1COc2cnc(Nc3ccc(-n4cnc(C)c4)c(F)c3)nc2N1C [Example 113] | 331 nM
46 | Cc1cn(-c2ccc(Nc3ncc4c(n3)N(C)C(C)CO4)cc2F)cn1 (single isomer, unassigned; (-)) [Example 108A] | 567 nM
47 | COc1cc(Nc2ncc3c(n2)N(C)C(C(F)(F)F)CO3)cnc1-n1cnc(C)c1 (single isomer, unassigned; (-)) [Example 193B] | 35 nM
48 | COc1cc(Nc2ncc3c(n2)N(C)C(C(F)(F)F)CO3)ccc1-n1cnc(C)n1 (single isomer, unassigned; (-)) [Example 242A] | 78 nM
49 | COc1cc(Nc2ncc3c(n2)N(C)C(C2CCOCC2)CO3)ccc1-n1cnc(C)c1 (single isomer, unassigned; (-)) [Example 114A] | 494 nM
50 | Cc1cn(-c2ccc(Nc3ncc4c(n3)N(C)C(c3cc(F)cc(F)c3)CO4)cc2C(F)F)cn1 (single isomer, unassigned; (+)) [Example 222A] | 361 nM
51 | Cc1cn(-c2ccc(Nc3ncc4c(n3)N(C)C(c3ccccc3)CO4)cc2)cn1 (single isomer, unassigned; (-)) [Example 26B] | 3140 nM
52 | COc1cc(Nc2ncc3c(n2)N(C)[C@@H](CC2CC2)CO3)ccc1-n1cnc(C)c1 [Example 217] | 53 nM
53 | COc1cc(Nc2ncc3c(n2)N(C)C(c2ccccc2OC(F)(F)F)CO3)ccc1-c1ccnc(C)c1 (single isomer, unassigned; (-)) [Example 62A] | 339 nM
